According to ChEMBL document CHEMBL1131881 (Bioorg Med Chem Lett, 1999):

Molecular target: Sodium-dependent dopamine transporter (Homo sapiens, UniProt Q01959)
Experiment: Binding affinity towards dopamine transporter (DAT)

Sequence of Sodium-dependent dopamine transporter (Q01959 whole entry): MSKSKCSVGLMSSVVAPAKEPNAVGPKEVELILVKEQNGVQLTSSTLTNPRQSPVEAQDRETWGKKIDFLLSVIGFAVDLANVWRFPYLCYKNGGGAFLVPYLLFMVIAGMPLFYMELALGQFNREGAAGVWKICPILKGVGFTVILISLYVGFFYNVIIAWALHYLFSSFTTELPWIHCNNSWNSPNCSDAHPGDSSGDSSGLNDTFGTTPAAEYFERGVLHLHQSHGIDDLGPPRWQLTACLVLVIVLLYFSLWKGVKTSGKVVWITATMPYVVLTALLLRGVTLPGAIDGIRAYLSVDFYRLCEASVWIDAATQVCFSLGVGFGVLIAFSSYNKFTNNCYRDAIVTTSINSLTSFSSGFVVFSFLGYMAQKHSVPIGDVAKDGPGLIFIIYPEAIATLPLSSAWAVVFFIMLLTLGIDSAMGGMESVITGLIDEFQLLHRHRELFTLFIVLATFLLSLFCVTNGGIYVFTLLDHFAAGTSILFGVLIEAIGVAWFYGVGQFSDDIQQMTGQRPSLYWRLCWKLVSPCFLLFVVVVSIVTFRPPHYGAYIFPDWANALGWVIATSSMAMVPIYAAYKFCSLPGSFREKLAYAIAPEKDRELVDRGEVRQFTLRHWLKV

Question: CCC[C@@H]1CN(C)CC[C@@H]1c1ccc(Cl)cc1 was tested. Which IC50 did it give?
Answer: Its IC50 is 3 nM.
